Assays:
Assay type in all cases: in vivo
[1] = test system: Green Peach Aphid (Myzus persicae); test: Insecticidal effect on green peach aphid, foliar spray on potted Chinese cabbage (Test Example 1); conditions: 500 ppm liquid chemical, sprayed on Chinese cabbage stalks and leaves, six days after the spraying
Excerpt: Insecticidal Effect on Green Peach Aphid (Myzus persicae)
A Chinese cabbage plant was planted in each of plastic pots with a diameter of 8 cm and a height of 8 cm, and green peach aphids were propagated on the plant, after which the parasites in each pot were counted. A preparation containing each compound of the present invention listed in Tables 2 to 4 or each comparative compound as an active ingredient was dispersed in and diluted with water to obtain a 500 ppm liquid chemical. The stalks and leaves of the potted Chinese cabbage plants were sprayed with the liquid chemical and air-dried, and then the pots were stored in a greenhouse. Six days after the spraying, green peach aphids parasitic on each Chinese cabbage plant were counted and the control efficacy was calculated by the following equation, whereby the insecticidal effect was judged according to the criterion shown below. Control efficacy=100−{(T×Ca)/(Ta×C)}×100 • Ta: number of parasites before spraying in treated group, • T: number of parasites after spraying in treated group, • Ca: number of parasites before spraying in untreated group, • C: number of parasites after spraying in untreated group.

[2] = test system: Greenhouse Whitefly (Trialeuroddes vaporariorum); test: Insecticidal effect on greenhouse whitefly, sprayed tomato leaf (Test Examples 2 and 4); conditions: 100 ppm liquid chemical, sprayed tomato leaf, 20 adult whiteflies, four days after the inoculation
Excerpt: Insecticidal Effect on Greenhouse Whitefly (Trialeuroddes vaporariorum)
A preparation containing each compound of the present invention listed in Tables 2 to 4 or each comparative compound as an active ingredient was dispersed in and diluted with water to obtain a 100 ppm liquid chemical. A tomato leaf set in a 20-ml vial with its stalk immersed in water was sprayed with the liquid chemical with a spray gun on a turntable. After air-dryness, the treated leaf was placed in a glass cylinder and inoculated with 20 adult greenhouse whiteflies. After the treatment, the glass cylinder was placed in a greenhouse. Four days after the inoculation, the living insects were counted. The corrected mortality was calculated according to the following equation and the insecticidal effect was judged according to the criterion shown below.
[formula] Criterion for Judgment:
Insecticidal Effect on Greenhouse (Trialeuroddes vaporariorum) at a Low Dosage
The same test as in Test Example 2 was carried out except for changing the concentration of the liquid chemical to 3 ppm.

[3] = test system: White Peach Scale (Pseudaulacaspis pentagona); test: Insecticidal effect on white peach scale, sprayed potato tuber (Test Examples 3 and 5); conditions: 100 ppm liquid chemical, potato tuber with first-instar larvae, fourteen days after the treatment
Excerpt: Insecticidal Effect on White Peach Scale (Pseudaulacaspis pentagona)
A preparation containing each compound of the present invention listed in Tables 2 to 4 or each comparative compound as an active ingredient was dispersed in and diluted with water to obtain a 100 ppm liquid chemical. A potato tuber with first-instar larvae of white peach scale as parasites was sprayed with the liquid chemical with a spray gun. Fourteen days after the treatment, the living insects were counted. In the same manner as in Test Example 2, the corrected mortality was calculated and the insecticidal effect was judged.
Insecticidal Effect on White Peach Scale (Pseudaulacaspis pentagona) at a Low Dosage
The same test as in Test Example 3 was carried out except for changing the concentration of the liquid chemical to 30 ppm.

Compound	Test Example 1: insecticidal effect (control efficacy) [1]	Test Example 2: insecticidal effect (corrected mortality) [2]	Test Example 3: insecticidal effect (corrected mortality) [3]
O=C(c1cccc(C(F)(F)F)c1)N1C(=O)N(N=Cc2cccnc2)Cc2cc(C(F)(C(F)(F)F)C(F)(F)F)ccc21 [compound 26]	A (Control efficacy 100%)	A (Corrected mortality 100%)	A (Corrected mortality 100%)
O=C(c1ccc(C(F)(F)F)cc1)N1C(=O)N(N=Cc2cccnc2)Cc2cc(C(F)(C(F)(F)F)C(F)(F)F)ccc21 [compound 27]	A (Control efficacy 100%)	A (Corrected mortality 100%)	A (Corrected mortality 100%)
O=C(c1ccc(F)cc1)N1C(=O)N(N=Cc2cccnc2)Cc2cc(C(F)(C(F)(F)F)C(F)(F)F)ccc21 [compound 28]	A (Control efficacy 100%)	A (Corrected mortality 100%)	A (Corrected mortality 100%)
COc1ccccc1C(=O)N1C(=O)N(N=Cc2cccnc2)Cc2cc(C(F)(C(F)(F)F)C(F)(F)F)ccc21 [compound 29]	A (Control efficacy 100%)	A (Corrected mortality 100%)	A (Corrected mortality 100%)
Cc1cccc(C(=O)N2C(=O)N(N=Cc3cccnc3)Cc3cc(C(F)(C(F)(F)F)C(F)(F)F)ccc32)c1 [compound 30]	A (Control efficacy 100%)	A (Corrected mortality 100%)	A (Corrected mortality 100%)
O=C(c1ccc(Cl)c(Cl)c1)N1C(=O)N(N=Cc2cccnc2)Cc2cc(C(F)(C(F)(F)F)C(F)(F)F)ccc21 [compound 31]	A (Control efficacy 100%)	A (Corrected mortality 100%)	A (Corrected mortality 100%)
O=C(c1ccc(-c2ccccc2)cc1)N1C(=O)N(N=Cc2cccnc2)Cc2cc(C(F)(C(F)(F)F)C(F)(F)F)ccc21 [compound 32]	A (Control efficacy 100%)	A (Corrected mortality 100%)	A (Corrected mortality 100%)
CN1C(=O)N(N=Cc2cccnc2)Cc2cc(C(F)(C(F)(F)F)C(F)(F)F)ccc21 [compound No. 1, 1-methyl-3-(3-pyridylmethylideneamino)-3,4-dihydro-6-[1,2,2,2-tetrafluoro-1-(trifluoromethyl)ethyl]-2(1H)-quinazolinone]	A (Control efficacy 100%)	A (Corrected mortality 100%)	A (Corrected mortality 100%)
CCCN1C(=O)N(N=Cc2cccnc2)Cc2cc(C(F)(C(F)(F)F)C(F)(F)F)ccc21 [compound No. 3]	A (Control efficacy 100%)	A (Corrected mortality 100%)	A (Corrected mortality 100%)
CC(=O)N1C(=O)N(N=Cc2cccnc2)Cc2cc(C(F)(C(F)(F)F)C(F)(F)F)ccc21 [compound No. 8, 1-acetyl-3-(3-pyridylmethylideneamino)-3,4-dihydro-6-[1,2,2,2-tetrafluoro-1-(trifluoromethyl)ethyl]-2(1H)-quinazolinone]	A (Control efficacy 100%)	A (Corrected mortality 100%)	A (Corrected mortality 100%)
O=C(c1cccc2ccccc12)N1C(=O)N(N=Cc2cccnc2)Cc2cc(C(F)(C(F)(F)F)C(F)(F)F)ccc21 [compound No. 33]	A (Control efficacy 100%)	A (Corrected mortality 100%)	A (Corrected mortality 100%)
